Measured values published in patent publication US20060069084A1, “Methods of inhibiting kinases” (priority 2001, published 2006).

How the values were obtained:
Type in all cases: biochemical
Conditions in all cases: inhibit 50% of activity at 50 μM
JAK1 = target: T1, JAK1 (Homo sapiens, UniProt P23458); test: JAK1 kinase domain capture-based ELISA kinase assay
T1 construct: The kinase domain of humanJAK1 was amplified from U937mRNA; His tag (from pFastBac HTb vector; nickel chelate purification) (N); made in house; host or cells: baculovirus; virus made in Sf9, large-scale expression in High Five insect cells
T1 sequence (P23458 875-1153 limits assumed): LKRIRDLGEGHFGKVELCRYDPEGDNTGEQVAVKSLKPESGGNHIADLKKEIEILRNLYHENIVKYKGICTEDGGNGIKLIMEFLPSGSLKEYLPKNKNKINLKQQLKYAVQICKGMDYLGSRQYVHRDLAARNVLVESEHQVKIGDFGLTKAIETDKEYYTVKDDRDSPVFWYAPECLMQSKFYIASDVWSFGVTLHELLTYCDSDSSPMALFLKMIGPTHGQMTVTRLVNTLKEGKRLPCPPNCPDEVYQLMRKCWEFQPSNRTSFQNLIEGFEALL
Experimental: (§1) For screening purposes, compounds were diluted in 96 well plates at a concentration of 50 μM or 20 μM. Plates were warmed at 37° C. for 30 minutes before assay.
The kinase domain of humanJAK1 was amplified from U937mRNA using the polymerase chain reaction with the following primers: […]
JAK1 PCR products were cloned into the pFastBac HTb expression vector (Gibco) via the Xho I and Kpn I sites. The JAK1 plasmid was then transformed into competent DH10Bac cells (Gibco), and the recombinant baculovirus produced prepared for transfection into Sf9 insect cells.
(§2) Baculovirus preparations from each of the JAK family members were infected into five litres of High Five cells (Invitrogen) grown in High Five serum free medium (Invitrogen) to a cell density of approximately 1-2×10^6 cells/ml. Cells are infected with virus at a MOI of 0.8-3.0. Cells were harvested and lysed. JAK kinase domains were purified by affinity chromatography on a Probond (Invitrogen) nickel chelate affinity column.
(§3) The biotinylated substrate biotin-EGPWLEEEEEAYGWMDF-NH2 (SEQ ID NO:9) (final concentration 5 μM) was used as substrate, and tyrosine phosphorylation was quantitated following transfer to an avidin coated ELISA plate using peroxidase-linked anti-phospho-tyrosine antibody PY20.
(§4) Inhibitors were added to the assays fifteen minutes prior to the addition of ATP. Inhibitors were added in aqueous DMSO, with DMSO concentrations never exceeding 1%.

JAK3 = target: T2, JAK3 (Homo sapiens, UniProt P52333); test: JAK3 kinase domain capture-based ELISA kinase assay
T2 construct: The kinase domain of humanJAK3 was amplified from U937mRNA; His tag (from pFastBac HTb vector; nickel chelate purification) (N); made in house; host or cells: baculovirus; virus made in Sf9, large-scale expression in High Five insect cells
T2 sequence (P52333 822-1111 limits assumed): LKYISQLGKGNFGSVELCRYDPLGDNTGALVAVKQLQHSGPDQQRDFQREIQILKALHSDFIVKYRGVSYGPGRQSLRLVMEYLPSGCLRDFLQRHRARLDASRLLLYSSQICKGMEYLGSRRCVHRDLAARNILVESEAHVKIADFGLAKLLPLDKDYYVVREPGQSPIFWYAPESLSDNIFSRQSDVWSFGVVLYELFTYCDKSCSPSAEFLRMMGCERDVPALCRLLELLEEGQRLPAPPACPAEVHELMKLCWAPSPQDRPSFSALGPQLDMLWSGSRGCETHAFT
Experimental: as §1
The kinase domain of humanJAK3 was amplified from U937mRNA using the polymerase chain reaction with the following primers: […]
JAK3 PCR products were cloned into the pFastBac HTb expression vector (Gibco) via the Xho I and Kpn I sites. The JAK3 plasmid was then transformed into competent DH10Bac cells (Gibco), and the recombinant baculovirus produced prepared for transfection into Sf9 insect cells.
as §2, §3, §4

JAK2 = target: T3, JAK2 (Homo sapiens, UniProt O60674); test: JAK2 kinase domain capture-based ELISA kinase assay
T3 construct: The kinase domain of humanJAK2 was amplified from U937mRNA; His tag (from pFastBac HTc vector; nickel chelate purification) (N); made in house; host or cells: baculovirus; virus made in Sf9, large-scale expression in High Five insect cells
T3 sequence (O60674 849-1124 limits assumed): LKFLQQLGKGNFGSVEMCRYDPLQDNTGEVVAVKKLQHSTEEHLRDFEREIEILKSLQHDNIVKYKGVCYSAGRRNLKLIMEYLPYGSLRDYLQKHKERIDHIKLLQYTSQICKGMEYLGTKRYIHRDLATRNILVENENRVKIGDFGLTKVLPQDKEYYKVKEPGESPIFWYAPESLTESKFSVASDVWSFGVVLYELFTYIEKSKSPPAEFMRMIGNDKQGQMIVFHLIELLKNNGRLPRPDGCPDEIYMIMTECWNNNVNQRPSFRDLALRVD
Experimental: as §1
The kinase domain of humanJAK2 was amplified from U937mRNA using the polymerase chain reaction with the following primers: […]
JAK2 PCR products were cloned into the pFastBac HTc expression vector (Gibco) via the Sal I and Not I sites. The JAK2 plasmid was then transformed into competent DH10Bac cells (Gibco), and the recombinant baculovirus produced prepared for transfection into Sf9 insect cells.
as §2, §3, §4

TYK2 = target: T4, TYK2 (Homo sapiens, UniProt P29597); test: TYK2 kinase domain capture-based ELISA kinase assay
T4 construct: The kinase domain of humanTYK2 was amplified from A549 mRNA; His tag (from pBlueBacHis2A vector; nickel chelate purification) (N); made in house; host or cells: baculovirus; virus made in Sf9, large-scale expression in High Five insect cells
T4 sequence (P29597 897-1176 limits assumed): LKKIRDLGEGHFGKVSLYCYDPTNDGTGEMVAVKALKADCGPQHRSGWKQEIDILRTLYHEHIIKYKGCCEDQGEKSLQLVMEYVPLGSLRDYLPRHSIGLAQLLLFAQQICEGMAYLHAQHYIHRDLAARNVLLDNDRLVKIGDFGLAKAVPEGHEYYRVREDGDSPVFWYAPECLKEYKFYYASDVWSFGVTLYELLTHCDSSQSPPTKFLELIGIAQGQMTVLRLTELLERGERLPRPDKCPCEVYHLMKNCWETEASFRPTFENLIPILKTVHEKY
Experimental: as §1
The kinase domain of humanTYK2 was amplified from A549 mRNA using the polymerase chain reaction with the following primers: […]
TYK2 PCR products were cloned into pBlueBacHis2A (Invitrogen) via the EcoRI site. The recombinant TYK2 baculovirus produced was prepared for transfected into Sf9 insect cells.
as §2, §3, §4

IC50 (JAK1; Table 5) | IC50 (JAK3; Table 5) | IC50 (JAK2; Table 5) | IC50 (TYK2; Table 5) | IC50 (JAK1; Table 6) | IC50 (JAK3; Table 6) | IC50 (JAK2; Table 6) | IC50 (TYK2; Table 6) | Structure (SMILES)
< 50 µM | < 50 µM | < 50 µM | < 50 µM | – | – | – | – | COc1cc(-c2cn3ccnc3c(NCc3ccccn3)n2)cc(OC)c1OC
< 50 µM | < 50 µM | < 50 µM | < 50 µM | – | – | – | – | CC(C)[C@H](CO)Nc1nc(-c2cccc(N)c2)cn2ccnc12
< 50 µM | < 50 µM | < 50 µM | < 50 µM | – | – | – | – | CC(=O)Nc1cccc(-c2cn3ccnc3c(N[C@@H](CO)C(C)C)n2)c1
< 50 µM | < 50 µM | < 50 µM | < 50 µM | – | – | – | – | COc1cc(-c2cn3ccnc3c(N3CCCN(C)CC3)n2)cc(OC)c1OC
– | – | – | – | < 50 µM | > 50 µM | < 50 µM | > 50 µM | Cc1ccc(S(=O)(=O)Nc2ccc(Nc3nc(-c4cccc(C(=O)NCCN(C)C)c4)cn4ccnc34)cc2)cc1
– | – | – | – | < 50 µM | > 50 µM | < 50 µM | < 50 µM | CC(=O)Nc1ccc(Nc2nc(-c3ccc4ccccc4c3)cn3ccnc23)cc1
– | – | – | – | > 50 µM | > 50 µM | < 50 µM | > 50 µM | Clc1ccccc1-c1cn2ccnc2c(NCc2ccccn2)n1
– | – | – | – | > 50 µM | < 50 µM | > 50 µM | > 50 µM | CCCC/C=C/c1cn2ccnc2c(NCCc2cccnc2)n1
– | – | – | – | > 50 µM | < 50 µM | > 50 µM | > 50 µM | CCCC/C=C/c1cn2ccnc2c(NCc2ccncc2)n1
– | – | – | – | < 50 µM | < 50 µM | < 50 µM | < 50 µM | O=C(O)c1ccc(-c2cn3ccnc3c(Nc3ccc(Cl)cc3)n2)cc1
– | – | – | – | < 50 µM | > 50 µM | < 50 µM | < 50 µM | c1ccc(Nc2nc(-c3ccc4c(c3)OCO4)cn3ccnc23)cc1
– | – | – | – | < 50 µM | < 50 µM | < 50 µM | < 50 µM | CC(=O)Nc1cccc(-c2cn3ccnc3c(Nc3ccccc3)n2)c1
– | – | – | – | < 50 µM | < 50 µM | < 50 µM | < 50 µM | CC(=O)c1ccc(-c2cn3ccnc3c(Nc3ccccc3)n2)s1
– | – | – | – | < 50 µM | < 50 µM | < 50 µM | < 50 µM | c1ccc(Nc2nc(-c3cccnc3)cn3ccnc23)cc1
– | – | – | – | < 50 µM | < 50 µM | < 50 µM | > 50 µM | CCNc1nc(-c2cccc(O)c2)cn2ccnc12
– | – | – | – | < 50 µM | < 50 µM | < 50 µM | > 50 µM | COc1cc(-c2cn3ccnc3c(NC3CC3)n2)ccc1O

More lines, now with the values behind:

Structure (SMILES) | IC50 (JAK1; Table 5) | IC50 (JAK3; Table 5) | IC50 (JAK2; Table 5) | IC50 (TYK2; Table 5) | IC50 (JAK1; Table 6) | IC50 (JAK3; Table 6) | IC50 (JAK2; Table 6) | IC50 (TYK2; Table 6)
O=C(NCCO)c1cccc(-c2cn3ccnc3c(Nc3ccc(N4CCOCC4)cc3)n2)c1 | < 50 µM | < 50 µM | < 50 µM | < 50 µM | – | – | – | –
COc1cccc(OC)c1-c1cn2ccnc2c(Nc2ccc(N3CCOCC3)cc2)n1 | < 50 µM | < 50 µM | < 50 µM | < 50 µM | – | – | – | –
Fc1ccccc1-c1cn2ccnc2c(NCc2ccccn2)n1 | < 50 µM | < 50 µM | < 50 µM | < 50 µM | – | – | – | –
CC(=O)Nc1ccc(Nc2nc(-c3ccc(O)cc3)cn3ccnc23)cc1 | < 50 µM | < 50 µM | < 50 µM | < 50 µM | – | – | – | –
COc1ccc(Nc2nc(-c3ccc4ccccc4c3)cn3ccnc23)cn1 | < 50 µM | < 50 µM | < 50 µM | < 50 µM | – | – | – | –
Cc1ccc(S(=O)(=O)Nc2ccc(Nc3nc(-c4ccccc4)cn4ccnc34)cc2)cc1 | < 50 µM | < 50 µM | < 50 µM | < 50 µM | – | – | – | –
CCCC/C=C/c1cn2ccnc2c(Nc2cccc(OCC(=O)N(C)C)c2)n1 | < 50 µM | < 50 µM | < 50 µM | < 50 µM | – | – | – | –
COc1cc(-c2cn3ccnc3c(N[C@@H]3CCN(Cc4ccccc4)C3)n2)cc(OC)c1OC | < 50 µM | < 50 µM | < 50 µM | < 50 µM | – | – | – | –
c1ccc(CNc2nc(Nc3cccc4[nH]ccc34)cn3ccnc23)cc1 | < 50 µM | < 50 µM | < 50 µM | < 50 µM | – | – | – | –
c1ccc2c(-c3cn4ccnc4c(Nc4ccc5cn[nH]c5c4)n3)cccc2c1 | < 50 µM | < 50 µM | < 50 µM | < 50 µM | – | – | – | –
c1ccc(-c2cc(Nc3ccc4[nH]ccc4c3)c3nccn3c2)cc1 | < 50 µM | < 50 µM | < 50 µM | < 50 µM | – | – | – | –
FC(F)(F)c1cc(-c2cn3ccnc3c(NCC3CCOCC3)n2)cc(C(F)(F)F)c1 | – | – | – | – | > 50 µM | > 50 µM | < 50 µM | > 50 µM
c1ccc(-c2cn3ccnc3c(NCc3ccncc3)n2)cc1 | – | – | – | – | < 50 µM | > 50 µM | > 50 µM | > 50 µM
O=C(O)c1cccc(-c2cn3ccnc3c(Nc3ccc(N4CCOCC4)cc3)n2)c1 | – | – | – | – | < 50 µM | < 50 µM | < 50 µM | < 50 µM
O=C(O)c1ccc(-c2cn3ccnc3c(N3CCN(c4ccccn4)CC3)n2)cc1 | – | – | – | – | < 50 µM | > 50 µM | > 50 µM | > 50 µM
CCN(CCO)c1ccc(Nc2nc(-c3cc(C(F)(F)F)cc(C(F)(F)F)c3)cn3ccnc23)cc1 | – | – | – | – | > 50 µM | > 50 µM | < 50 µM | > 50 µM
CCC(CO)Nc1nc(-c2ccco2)cn2ccnc12 (stereo not shown) | – | – | – | – | < 50 µM | < 50 µM | < 50 µM | > 50 µM
O=C(O)c1ccc(-c2cn3ccnc3c(N3CCN(c4ccncc4)CC3)n2)cc1 | – | – | – | – | > 50 µM | > 50 µM | < 50 µM | > 50 µM
CCN(CCO)c1ccc(Nc2nc(-c3c(OC)cccc3OC)cn3ccnc23)cc1 | – | – | – | – | < 50 µM | > 50 µM | < 50 µM | > 50 µM
Cc1ccc(S(=O)(=O)Nc2ccc(Nc3nc(-c4cccc(N)c4)cn4ccnc34)cc2)cc1 | – | – | – | – | < 50 µM | > 50 µM | < 50 µM | < 50 µM
CC(C)[C@H](CO)Nc1nc(-c2ccc(C(=O)O)cc2)cn2ccnc12 | – | – | – | – | > 50 µM | < 50 µM | < 50 µM | > 50 µM
CC(=O)Nc1ccc(Nc2nc(-c3ccccc3F)cn3ccnc23)cc1 | – | – | – | – | < 50 µM | < 50 µM | < 50 µM | < 50 µM
c1cn2cc(-c3ccc4c(c3)OCO4)nc(NC3CC3)c2n1 | – | – | – | – | < 50 µM | > 50 µM | > 50 µM | < 50 µM
Oc1ccc(-c2cn3ccnc3c(Nc3ccccc3)n2)cc1 | – | – | – | – | < 50 µM | > 50 µM | < 50 µM | > 50 µM
CN1CCN(c2nc(-c3cccnc3)cn3ccnc23)CC1 | – | – | – | – | < 50 µM | > 50 µM | > 50 µM | > 50 µM
COc1cc(-c2cn3ccnc3c(NCC3CC3)n2)ccc1O | – | – | – | – | < 50 µM | > 50 µM | > 50 µM | > 50 µM
Oc1cccc(-c2cn3ccnc3c(NC3CC3)n2)c1 | – | – | – | – | < 50 µM | > 50 µM | < 50 µM | < 50 µM
